Experimental data reported in the NIST ThermoML archive (doi:10.1016/j.jct.2013.08.007).
± gives the expanded uncertainty stated by the source.

Legend:
[1] = Liquid; for mass density: Vibrating tube method; for viscosity: 101.33 kPa, Moving piston method
[2] = xn = mol fraction of the nth substance listed; settings: Liquid; for viscosity: Moving piston method; for mass density: Vibrating tube method

CCCCO [butan-1-ol]
mass density [kg/m3], [1]
Settings	302.9 K	323.1 K
100 kPa	802 ± 0.3	785.6 ± 0.3
1010 kPa	–	786.6 ± 0.3
1020 kPa	802.7 ± 0.3	–
2010 kPa	803.4 ± 0.3	–
2020 kPa	–	787.5 ± 0.3
3010 kPa	804.1 ± 0.3	788.3 ± 0.3
4000 kPa	804.9 ± 0.3	789.2 ± 0.3
5010 kPa	805.7 ± 0.3	–
5020 kPa	–	790 ± 0.3
6000 kPa	806.4 ± 0.3	–
6020 kPa	–	790.9 ± 0.3
7000 kPa	–	791.7 ± 0.3
7020 kPa	807.2 ± 0.3	–
8010 kPa	807.9 ± 0.3	792.5 ± 0.3
9020 kPa	808.7 ± 0.3	793.3 ± 0.3
10020 kPa	809.4 ± 0.3	794.2 ± 0.3

[1]
Settings	viscosity [mPa·s]
303.15 K	2.197 ± 0.088
323.3 K	1.347 ± 0.055

CCCCO [butan-1-ol] + O=C=O
[2]
Settings	mass density, 303 K [kg/m3]	mass density, 323.1 K [kg/m3]	viscosity, 303 K [mPa·s]	viscosity, 323.1 K [mPa·s]
920 kPa, x2 = 0.047	–	789.3 ± 0.9	–	1.143 ± 0.029
1050 kPa, x2 = 0.07	808.1 ± 0.6	–	1.744 ± 0.079	–
1920 kPa, x2 = 0.098	–	793.3 ± 4.4	–	1 ± 0.11
2030 kPa, x2 = 0.14	814.3 ± 0.7	–	1.428 ± 0.063	–
2940 kPa, x2 = 0.151	–	798.4 ± 1	–	0.828 ± 0.054
3220 kPa, x2 = 0.217	822.8 ± 0.5	–	1.16 ± 0.04	–
3990 kPa, x2 = 0.223	–	802 ± 0.8	–	0.722 ± 0.02
4100 kPa, x2 = 0.304	828.4 ± 0.4	–	0.87 ± 0.044	–
4970 kPa, x2 = 0.384	835.3 ± 0.6	–	0.661 ± 0.022	–
5100 kPa, x2 = 0.288	–	806.7 ± 0.6	–	0.599 ± 0.017
6250 kPa, x2 = 0.374	–	811 ± 0.8	–	0.486 ± 0.016

CC [ethane] + CCCCO
[2]
Settings	mass density, 303 K [kg/m3]	mass density, 323.1 K [kg/m3]	viscosity, 303 K [mPa·s]	viscosity, 323.1 K [mPa·s]
1050 kPa, x1 = 0.097	776.8 ± 0.8	–	1.553 ± 0.059	–
1140 kPa, x1 = 0.086	–	762.8 ± 1.1	–	1.008 ± 0.021
2050 kPa, x1 = 0.157	–	744.2 ± 3.3	–	0.801 ± 0.05
2080 kPa, x1 = 0.214	745.4 ± 3.1	–	1.114 ± 0.05	–
3070 kPa, x1 = 0.243	–	718.4 ± 2.3	–	0.618 ± 0.028
3070 kPa, x1 = 0.341	704.9 ± 3.2	–	0.668 ± 0.039	–
4070 kPa, x1 = 0.336	–	688.3 ± 3.8	–	0.462 ± 0.024
4950 kPa, x1 = 0.428	–	652.9 ± 2.4	–	0.351 ± 0.015
6020 kPa, x1 = 0.579	–	588.2 ± 1.9	–	0.212 ± 0.012

C [methane] + CCCCO
[2]
Settings	mass density, 303 K [kg/m3]	mass density, 323.1 K [kg/m3]	viscosity, 303 K [mPa·s]	viscosity, 323.1 K [mPa·s]
1050 kPa, x1 = 0.02	–	782.2 ± 0.7	–	1.236 ± 0.035
1060 kPa, x1 = 0.021	797.6 ± 0.6	–	1.994 ± 0.1	–
2070 kPa, x1 = 0.035	–	778.5 ± 3.2	–	1.174 ± 0.13
2100 kPa, x1 = 0.039	793.7 ± 3.1	–	1.86 ± 0.057	–
2980 kPa, x1 = 0.048	–	775.5 ± 1	–	1.131 ± 0.031
3120 kPa, x1 = 0.056	789.4 ± 1.8	–	1.731 ± 0.25	–
4030 kPa, x1 = 0.065	–	771.6 ± 1	–	1.085 ± 0.042
4080 kPa, x1 = 0.071	785.8 ± 3.9	–	1.67 ± 0.12	–
5020 kPa, x1 = 0.079	–	767.9 ± 1	–	1.046 ± 0.029
5090 kPa, x1 = 0.087	781.8 ± 2.9	–	1.612 ± 0.077	–
6070 kPa, x1 = 0.095	–	764.2 ± 0.6	–	1.005 ± 0.034
6070 kPa, x1 = 0.102	778.3 ± 0.7	–	1.548 ± 0.083	–
